# “And” between values parts separate entries of the source, which are not always exact repeats. Identical values can stand only once. Like-named read-outs stand apart in the source and are kept apart here.
# Tests used:
# PDO10 = assay: cell viability in patient-derived CRC organoids PDO10; format: cell-based, human
# Experimental: (§1) For in vitro treatment studies, organoids were mechanically dissociated and digested using TrypLE supplemented with 100 µg ml^−1 DNaseI and 10.5 µM Y-27632 dihydrochloride (Invitrogen) at 37 °C. A total of 1,000–2,000 single cells were plated per well in white 96-well plates (Greiner) in culture medium containing 10% GFR Matrigel or Cultrex BME. The treatment with doxycycline (5 µg ml^−1), pharmacological inhibitors or corresponding volumes of DMSO was started 24 h after plating. Doxycycline was obtained from Sigma-Aldrich. […] Cell viability was measured by means of CellTiter-Glo 3D or CellTiter-Glo 2.0 reagent (Promega) according to the manufacturers’ instructions and the Infinite M Plex reader (Tecan, i-control version 3.9.1 software). Results were normalized to vehicle (DMSO) or to shNC. For cell-doubling assays, the cell number was quantified at the corresponding time points using Guava EasyCyte flow cytometer (Luminex, CytoSoft v5.2 software).
# HT-29 = assay: cell viability in human CRC cell line HT-29; format: cell-based; conditions: ED Fig. 9h, replicates; for viability at 0.0137 µM / viability at 0.0412 µM / viability at 0.1235 µM / viability at 0.3704 µM / viability at 1.1111 µM / viability at 3.3333 µM / viability at 10 µM: Homo sapiens, read-out: HT-29 Cell viability (%); for viability at 0.0137 µM: HT-29, 0.0137 µM; for viability at 0.0412 µM: HT-29, 0.0412 µM; for viability at 0.1235 µM: HT-29, 0.1235 µM; for viability at 0.3704 µM: HT-29, 0.3704 µM; for viability at 1.1111 µM: HT-29, 1.1111 µM; for viability at 3.3333 µM: HT-29, 3.3333 µM; for viability at 10 µM: HT-29, 10.0000 µM
# Experimental: To generate KAP^2D cells, KAP organoids were isolated from Matrigel, fragmented by mechanical dissociation and plated without any extracellular matrix on common cell culture dishes. Phoenix-Eco packaging cells (CRL-3214), HCT-15 (CCL-225), HCT 116 (CCL-247), COLO 205 (CCL-222), LS 174T (CL-188), RKO (CRL-2577) and HT-29 (HTB-38) were obtained from the American Type Culture Collection. The cells were cultured at 37 °C and 7% CO2 with RPMI (KAP^2D cells) or DMEM (other cell lines), supplemented with 10% FBS and penicillin–streptomycin. KAP^2D cells were authenticated using PCR (Kras locus and Trp53 locus). Phoenix-Eco packaging cells and HCT-15, HCT 116, COLO 205, LS 174T, RKO and HT-29 cells were authenticated by the provider using short tandem repeat profiling. No commonly misidentified cell lines were used. Mycoplasma contamination was excluded by a PCR-based analysis.
# as §1
# KAP organoids = assay: cell viability in KAP organoids (CellTiter-Glo); format: cell-based, mouse; conditions: for viability at 1 µM: Mus musculus
# Procedure, shortened: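 Viability normalized to DMSO, by CellTiter-Glo luminescence. Inhibitor treatment of 1,000–2,000 organoid-derived single cells per well started 24 h post-seeding in 10% GFR Matrigel or BME medium.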
# KAP^2D cells = assay: EdU incorporation in KAP^2D cells; format: cell-based, mouse; conditions: replicates, experiment and repetition
# Experimental: Immunofluorescence staining on cells and organoids was performed on glass coverslips or tissue culture chambers (Sarstedt). Organoids were plated in medium containing 10% Matrigel or Cultrex BME. The cultures were fixed with 4% paraformaldehyde and stained with specific antibodies and DAPI (Vector Labs). All used antibodies and dilutions are listed in the Nature Portfolio Reporting Summary. For analyzing DNA synthesis, the Molecular Probes Click-iT EdU Alexa Fluor 555 kit was used 24 h after EdU incorporation with DAPI counterstaining. SA-β-Gal staining of cells was performed in cell culture dishes (cells) or tissue culture chambers (organoids) after fixation with 0.5% glutaraldehyde as described above. Human cultures were incubated with X-Gal solution at pH 6.0 for ~4 h.
# PDO13 = assay: cell viability in patient-derived CRC organoids PDO13; format: cell-based, human
# Experimental: as §1
# PDO14 = assay: cell viability in patient-derived CRC organoids PDO14; format: cell-based, human
# Experimental: as §1
# PDO7 = assay: cell viability in patient-derived CRC organoids PDO7; format: cell-based, human
# Experimental: as §1
# LS 174T = assay: cell viability in human CRC cell line LS 174T; format: cell-based; conditions: 4 d
# Experimental: The cells were cultured at 37 °C and 7% CO2 with RPMI (KAP^2D cells) or DMEM (other cell lines), supplemented with 10% FBS and penicillin–streptomycin. […] No commonly misidentified cell lines were used. Mycoplasma contamination was excluded by a PCR-based analysis.
# KAP liver metastasis = assay: survival of wild-type mice with KAP liver metastasis; format: in vivo, mouse
# Experimental: Subcutaneous injection, splenic seeding or cecum injection of organoids was performed in 8–10-week-old C57BL/6 N/Crl, Rag2^−/− (B6.Cg-Rag2^tm1.1Cgn/J), or CB17 Scid beige (CB17.Cg-Prkdc^scidLyst^bg-J/Crl) mice, obtained from Charles River. The organoids were dissociated into single cells, washed with PBS and injected in a 1:1 mixture of PBS and Matrigel. For murine organoids, 1 × 10^5 cells were injected into the left and right flanks or the spleen capsule and 2 × 10^6 cells were injected into the cecum wall. For human organoids, 4 × 10^5 cells were injected into the flanks of CB17 Scid beige mice. For splenic seeding and cecum injection, mice were anaesthetized using ketamine (100 mg kg^−1, intraperitoneally) and xylazin (10 mg/kg, intraperitoneally) in NaCl and a small laparotomy below the thorax was performed.
# No mice were excluded during treatment studies.
# PDO6 = assay: cell viability in patient-derived CRC organoids PDO6; format: cell-based, human
# Experimental: as §1
# PDO15 = assay: cell viability in patient-derived CRC organoids PDO15; format: cell-based, human
# Experimental: as §1
smiles,measurement,setting,value
O=C(NCCN1CCOCC1)c1ccc2c(c1)C(=O)c1ccc(Nc3ccc(F)c(NC(=O)c4ccccc4)c3)cc1CC2 [Compound 1639],viability at 0.5 µM,"PDO10; Homo sapiens, 96 h, PDO10, 0.5 µM, 4 d, read-out: Cell viability (%)",90.3%
same,viability at 1 µM,"PDO10; Homo sapiens, 96 h, PDO10, 1 µM, 4 days, read-out: Cell viability (%)",87.1%
same,Cell viability (%),"PDO10; PDO10, 0.5 µM, 4 d, 0.5 µM",99.84% and 101.72%
same,Cell viability (%),"PDO10; PDO10, 1 µM, 4 days, 1 µM",92.00% and 89.92%
same,HT-29 Cell viability (%),"HT-29; 0.0137 µM, Repetition",102.28% and 94.62%
same,HT-29 Cell viability (%),"HT-29; 0.0137 µM, first experiment",94.47% and 95.05%
same,HT-29 Cell viability (%),"HT-29; 0.0412 µM, Repetition",101.53% and 96.63%
same,HT-29 Cell viability (%),"HT-29; 0.0412 µM, first experiment",94.54% and 96.05%
same,HT-29 Cell viability (%),"HT-29; 0.1235 µM, Repetition",102.40% and 91.02%
same,HT-29 Cell viability (%),"HT-29; 0.1235 µM, first experiment",88.93% and 89.95%
same,HT-29 Cell viability (%),"HT-29; 0.3704 µM, Repetition",96.43% and 88.31%
same,HT-29 Cell viability (%),"HT-29; 0.3704 µM, first experiment",89.51% and 89.95%
same,HT-29 Cell viability (%),"HT-29; 1.1111 µM, Repetition",89.29% and 79.16%
same,HT-29 Cell viability (%),"HT-29; 1.1111 µM, first experiment",95.25% and 92.43%
same,HT-29 Cell viability (%),"HT-29; 3.3333 µM, Repetition",53.45% and 49.18%
same,HT-29 Cell viability (%),"HT-29; 3.3333 µM, first experiment",66.80% and 71.86%
same,HT-29 Cell viability (%),"HT-29; 10.0000 µM, Repetition",3.09% and 3.77%
same,HT-29 Cell viability (%),"HT-29; 10.0000 µM, first experiment",4.59% and 5.12%
same,viability at 0.0137 µM,HT-29; Repetition,102%
same,viability at 0.0137 µM,HT-29; first experiment,94.8%
same,viability at 0.0412 µM,HT-29; Repetition,105%
same,viability at 0.0412 µM,HT-29; first experiment,93.8%
same,viability at 0.1235 µM,HT-29; Repetition,104%
same,viability at 0.1235 µM,HT-29; first experiment,88.1%
same,viability at 0.3704 µM,HT-29; Repetition,95.8%
same,viability at 0.3704 µM,HT-29; first experiment,88.9%
same,viability at 1.1111 µM,HT-29; Repetition,88.5%
same,viability at 1.1111 µM,HT-29; first experiment,92.4%
same,viability at 3.3333 µM,HT-29; Repetition,52.9%
same,viability at 3.3333 µM,HT-29; first experiment,70.7%
same,viability at 10 µM,HT-29; Repetition,3.22%
same,viability at 10 µM,HT-29; first experiment,4.71%
same,Cell viability (%),"KAP organoids; Fig. 1g, 0.5 µM, replicates",93.61% and 119.78% and 82.99%
same,Cell viability (%),"KAP organoids; Fig. 1g, 1 µM, replicates",54.56% and 39.62%
same,Cell viability (%),"KAP organoids; Fig. 2b, compound screen, replicates",45.26% and 35.57% and 35.59%
same,Cell viability (%),"KAP organoids; Fig. 2f, 0,5 µM, replicates, 5 µM",109.96% and 85.33% and 68.50%
same,Cell viability (%),"KAP organoids; Fig. 2f, 0,25 µM, replicates, 25 µM",115.00% and 101.97% and 82.44%
same,Cell viability (%),"KAP organoids; Fig. 2f, 1 µM, replicates",55.27% and 54.06%
same,viability at 1 µM,"KAP organoids; Fig. 1g, 1 µM, replicates, read-out: Cell viability (%)",51.8%
same,viability at 1 µM,"KAP organoids; Fig. 2f, 1 µM, replicates, read-out: Cell viability (%)",72.9%
same,viability at 1 µM,"KAP organoids; drug screen in KAP organoids, 1 µM concentration, n = 3, mean, read-out: Cell viability (% of DMSO)",38.8%
same,induction of cell death in KAP organoids (in words),KAP organoids; viability assay,moderate but significant induction of cell death
same,EdU+ cells,KAP^2D cells; Fig. 4j,87.08% and 89.84% and 80.20% and 80.71% and 77.64% and 85.43% and 87.34% and 80.43%
same,EdU+ cells,KAP^2D cells; Fig. 5b,16.24% and 18.58% and 17.71% and 16.69% and 15.27% and 21.79% and 19.62% and 11.52%
same,viability at 0.5 µM,"PDO13; Homo sapiens, 96 h, PDO13, 0.5 µM, 4 d, read-out: Cell viability (%)",93.8%
same,viability at 1 µM,"PDO13; Homo sapiens, 96 h, PDO13, 1 µM, 4 days, read-out: Cell viability (%)",84.5%
same,Cell viability (%),"PDO13; PDO13, 0.5 µM, 4 d, 0.5 µM",111.59% and 96.20%
same,Cell viability (%),"PDO13; PDO13, 1 µM, 4 days, 1 µM",86.80% and 77.48%
same,viability at 0.5 µM,"PDO14; Homo sapiens, 96 h, PDO14, 0.5 µM, 4 d, read-out: Cell viability (%)",101%
same,viability at 1 µM,"PDO14; Homo sapiens, 96 h, PDO14, 1 µM, 4 days, read-out: Cell viability (%)",105%
same,Cell viability (%),"PDO14; PDO14, 0.5 µM, 4 d, 0.5 µM",102.33% and 109.28%
same,Cell viability (%),"PDO14; PDO14, 1 µM, 4 days, 1 µM",95.42% and 93.44%
same,viability at 1 µM,"PDO7; Homo sapiens, 96 h, PDO7, 1 µM, 4 days, read-out: Cell viability (%)",103%
same,Cell viability (%),"PDO7; PDO7, 0.5 µM, 4 d, 0.5 µM",99.28% and 131.17% and 112.30%
same,Cell viability (%),"PDO7; PDO7, 1 µM, 4 days, 1 µM",115.94% and 100.13%
same,LS 174T Cell viability (%),LS 174T; 0.0137 µM,96.96% and 98.13% and 93.47% and 92.87% and 103.70%
same,LS 174T Cell viability (%),LS 174T; 0.0412 µM,88.17% and 87.93% and 84.72% and 87.30% and 86.06%
same,LS 174T Cell viability (%),LS 174T; 0.1235 µM,73.32% and 74.11% and 80.93% and 80.83% and 84.53%
same,LS 174T Cell viability (%),LS 174T; 0.3704 µM,72.52% and 70.49% and 77.50% and 75.15% and 72.31%
same,LS 174T Cell viability (%),LS 174T; 1.1111 µM,73.18% and 76.23% and 79.82% and 74.44% and 73.58%
same,LS 174T Cell viability (%),LS 174T; 3.3333 µM,64.63% and 65.58% and 65.84% and 62.28% and 62.47%
same,LS 174T Cell viability (%),LS 174T; 10.0000 µM,22.96% and 24.63% and 23.18% and 23.96% and 22.77%
same,viability at 0.0137 µM,"LS 174T; Homo sapiens, LS174T, 96 h, 0.0137 µM, read-out: LS 174T Cell viability (%)",95%
same,viability at 0.0412 µM,"LS 174T; Homo sapiens, LS174T, 96 h, 0.0412 µM, read-out: LS 174T Cell viability (%)",81.8%
same,viability at 0.1235 µM,"LS 174T; Homo sapiens, LS174T, 96 h, 0.1235 µM, read-out: LS 174T Cell viability (%)",73.7%
same,viability at 0.3704 µM,"LS 174T; Homo sapiens, LS174T, 96 h, 0.3704 µM, read-out: LS 174T Cell viability (%)",74.4%
same,viability at 1.1111 µM,"LS 174T; Homo sapiens, LS174T, 96 h, 1.1111 µM, read-out: LS 174T Cell viability (%)",77.1%
same,viability at 3.3333 µM,"LS 174T; Homo sapiens, LS174T, 96 h, 3.3333 µM, read-out: LS 174T Cell viability (%)",68.9%
same,viability at 10 µM,"LS 174T; Homo sapiens, LS174T, 96 h, 10.0000 µM, read-out: LS 174T Cell viability (%)",24.4%
same,survival / therapeutic efficacy in KAP liver metastasis (in words),"KAP liver metastasis; 20 mg kg^−1 daily, start 5 weeks after organoid inoculation",slight but nonsignificant survival benefit
same,Survival,"KAP liver metastasis; single animals, 1 = event, 0 = censored, Fig. 6e",26 d of treatment and 29 d of treatment and 11 d of treatment and 12 d of treatment and 25 d of treatment and 27 d of treatment and 20 d of treatment
same,viability at 1 µM,"PDO6; Homo sapiens, 96 h, PDO6, 1 µM, 4 days, read-out: Cell viability (%)",88.1%
same,Cell viability (%),"PDO6; PDO6, 0.5 µM, 4 d, 0.5 µM",89.33% and 120.75% and 95.55%
same,Cell viability (%),"PDO6; PDO6, 1 µM, 4 days, 1 µM",103.21% and 96.02%
same,viability at 0.5 µM,"PDO15; Homo sapiens, 96 h, PDO15, 0.5 µM, 4 d, read-out: Cell viability (%)",101%
same,viability at 1 µM,"PDO15; Homo sapiens, 96 h, PDO15, 1 µM, 4 days, read-out: Cell viability (%)",87.7%
same,Cell viability (%),"PDO15; PDO15, 0.5 µM, 4 d, 0.5 µM",102.64% and 92.86%
same,Cell viability (%),"PDO15; PDO15, 1 µM, 4 days, 1 µM",91.79% and 86.01%
